Data reported in ChEMBL document CHEMBL3885881, “DrugMatrix”.
Several values for one entry are separate records, joined by “and”; a condition that tells them apart may be missing. Equal values may be shown once.

Species: Rattus norvegicus
Assay: DrugMatrix - Regimen: Daily Repeat
Type: toxicity, organism-based, Sprague-Dawley
Set-up: regimen Daily Repeat, gender Male, age 6-8 weeks
Settings: in vivo, po, route oral GAVAGE, vehicle 100 % WATER; for ABSOLUTE BASOPHIL / ABSOLUTE LYMPHOCYTE / ABSOLUTE SEGMENTED NEUTROPHIL / BASOPHIL / EOSINOPHIL / ERYTHROCYTE COUNT / HEMATOCRIT / LEUKOCYTE COUNT / LYMPHOCYTE / MEAN CORPUSCULAR HEMOGLOBIN / MEAN CORPUSCULAR HEMOGLOBIN CONCENTRATION / MEAN CORPUSCULAR VOLUME / MONOCYTE / NEUTROPHIL / NUCLEATED RED BLOOD CELLS / PLATELET COUNT / ABSOLUTE MONOCYTE / ABSOLUTE EOSINOPHIL: tissue Blood; for ALANINE AMINOTRANSFERASE / ALBUMIN / ALKALINE PHOSPHATASE / ASPARTATE AMINOTRANSFERASE / BLOOD UREA NITROGEN / CARBON DIOXIDE / CHLORIDE / CHOLESTEROL / CREATINE PHOSPHOKINASE / CREATININE / GLUCOSE / LACTATE DEHYDROGENASE / LIPASE / PHOSPHORUS / POTASSIUM / SODIUM / TOTAL BILIRUBIN / TOTAL PROTEIN / URIC ACID: tissue Plasma
[1] = 0 mg/kg, 72 h, dose level Control, time 3 day
[2] = 0 mg/kg, 120 h, dose level Control, time 5 day
[3] = 235 mg/kg, 72 h, dose level Low, time 3 day
[4] = 235 mg/kg, 120 h, dose level Low, time 5 day
[5] = 850 mg/kg, 72 h, dose level M1, time 3 day

CCCC(CCC)C(=O)O [VALPROIC ACID]
ABSOLUTE BASOPHIL [1]: 0 CELLS/uL
ABSOLUTE LYMPHOCYTE [1]: 10696 CELLS/uL and 11257.17 CELLS/uL
ABSOLUTE SEGMENTED NEUTROPHIL [1]: 1045.33 CELLS/uL and 1220.33 CELLS/uL
BASOPHIL [1]: 0%
EOSINOPHIL [1]: 1% and 0.33%
ERYTHROCYTE COUNT [1]: 5.87 x10E6/uL and 5 x10E6/uL
HEMATOCRIT [1]: 38.5% and 32.62%
LEUKOCYTE COUNT [1]: 12.07 x10E3/uL and 12.58 x10E3/uL
LYMPHOCYTE [1]: 88.33% and 89%
MEAN CORPUSCULAR HEMOGLOBIN [1]: 23.47 pg and 25.67 pg
MEAN CORPUSCULAR HEMOGLOBIN CONCENTRATION [1]: 35.7 G/DL and 39.35 G/DL
MEAN CORPUSCULAR VOLUME [1]: 65.63 fL and 65.23 fL
MONOCYTE [1]: 2% and 0.67%
NEUTROPHIL [1]: 8.67% and 10%
NUCLEATED RED BLOOD CELLS [1]: 0 /100WBC
PLATELET COUNT [1]: 1151.33 x10E3/uL and 1162.5 x10E3/uL
ALANINE AMINOTRANSFERASE [1]: 60.67 u/L and 45.33 u/L
ALBUMIN [1]: 4.23 G/DL and 3.95 G/DL
ALKALINE PHOSPHATASE [1]: 377.67 u/L and 356.17 u/L
ASPARTATE AMINOTRANSFERASE [1]: 85.33 u/L and 81 u/L
BLOOD UREA NITROGEN [1]: 15 mg/dL and 11 mg/dL
CARBON DIOXIDE [1]: 37 mmol/L and 29.83 mmol/L
CHLORIDE [1]: 97.67 MEQ/L and 97.8 MEQ/L
CHOLESTEROL [1]: 70.67 mg/dL and 65.17 mg/dL
CREATINE PHOSPHOKINASE [1]: 361.67 u/L and 211.33 u/L
CREATININE [1]: 0.18 mg/dL and 0.11 mg/dL
GLUCOSE [1]: 154 mg/dL and 164.67 mg/dL
LACTATE DEHYDROGENASE [1]: 99 u/L and 143.17 u/L
LIPASE [1]: 12.67 u/L and 10.17 u/L
PHOSPHORUS [1]: 9.53 mg/dL and 10.88 mg/dL
POTASSIUM [1]: 5.55 MEQ/L and 6.08 MEQ/L
SODIUM [1]: 143.1 MEQ/L and 141.54 MEQ/L
TOTAL BILIRUBIN [1]: 0.2 mg/dL and 0.23 mg/dL
TOTAL PROTEIN [1]: 5.97 G/DL and 5.65 G/DL
URIC ACID [1]: 0.77 mg/dL and 1 mg/dL
ABSOLUTE BASOPHIL [2]: 0 CELLS/uL
ABSOLUTE LYMPHOCYTE [2]: 9535 CELLS/uL and 9267.83 CELLS/uL
ABSOLUTE MONOCYTE [2]: 182 CELLS/uL and 194.33 CELLS/uL
ABSOLUTE SEGMENTED NEUTROPHIL [2]: 783 CELLS/uL and 572.5 CELLS/uL
BASOPHIL [2]: 0%
EOSINOPHIL [2]: 0% and 0.33%
ERYTHROCYTE COUNT [2]: 5.35 x10E6/uL and 5.41 x10E6/uL
HEMATOCRIT [2]: 34.17% and 36.17%
LEUKOCYTE COUNT [2]: 10.5 x10E3/uL and 10.08 x10E3/uL
LYMPHOCYTE [2]: 89.67% and 92.17%
MEAN CORPUSCULAR HEMOGLOBIN [2]: 24.67 pg and 25.73 pg
MEAN CORPUSCULAR HEMOGLOBIN CONCENTRATION [2]: 38.57 G/DL and 38.45 G/DL
MEAN CORPUSCULAR VOLUME [2]: 63.9 fL and 66.97 fL
MONOCYTE [2]: 1.67% and 1.83%
NEUTROPHIL [2]: 8.67% and 5.67%
PLATELET COUNT [2]: 990 x10E3/uL and 1122.33 x10E3/uL
ALANINE AMINOTRANSFERASE [2]: 46.67 u/L and 52.83 u/L
ALBUMIN [2]: 3.97 G/DL and 4.12 G/DL
ALKALINE PHOSPHATASE [2]: 343.67 u/L and 367.33 u/L
ASPARTATE AMINOTRANSFERASE [2]: 71 u/L and 88 u/L
BLOOD UREA NITROGEN [2]: 11.67 mg/dL and 12.67 mg/dL
CARBON DIOXIDE [2]: 27 mmol/L and 33.67 mmol/L
CHLORIDE [2]: 105.33 MEQ/L and 97 MEQ/L
CHOLESTEROL [2]: 70.67 mg/dL and 67.5 mg/dL
CREATINE PHOSPHOKINASE [2]: 208.67 u/L and 358.67 u/L
CREATININE [2]: 0.1 mg/dL and 0.14 mg/dL
GLUCOSE [2]: 161.33 mg/dL and 152.33 mg/dL
LIPASE [2]: 9.33 u/L and 10.5 u/L
PHOSPHORUS [2]: 12.7 mg/dL and 10.63 mg/dL
POTASSIUM [2]: 5.59 MEQ/L and 5.99 MEQ/L
SODIUM [2]: 147.1 MEQ/L and 141.85 MEQ/L
TOTAL BILIRUBIN [2]: 0.17 mg/dL and 0.2 mg/dL
TOTAL PROTEIN [2]: 5.97 G/DL and 6.18 G/DL
URIC ACID [2]: 0.73 mg/dL and 0.52 mg/dL
ABSOLUTE BASOPHIL [3]: 0 CELLS/uL
ABSOLUTE EOSINOPHIL [3]: 39.33 CELLS/uL
ABSOLUTE LYMPHOCYTE [3]: 3794.33 CELLS/uL
ABSOLUTE MONOCYTE [3]: 121.33 CELLS/uL
ABSOLUTE SEGMENTED NEUTROPHIL [3]: 678.33 CELLS/uL
BASOPHIL [3]: 0%
EOSINOPHIL [3]: 0.67%
ERYTHROCYTE COUNT [3]: 5.06 x10E6/uL
HEMATOCRIT [3]: 32.73%
LEUKOCYTE COUNT [3]: 4.63 x10E3/uL
LYMPHOCYTE [3]: 81.33%
MEAN CORPUSCULAR HEMOGLOBIN [3]: 25.03 pg
MEAN CORPUSCULAR HEMOGLOBIN CONCENTRATION [3]: 38.63 G/DL
MEAN CORPUSCULAR VOLUME [3]: 64.7 fL
MONOCYTE [3]: 2.67%
NEUTROPHIL [3]: 15.33%
NUCLEATED RED BLOOD CELLS [3]: 0 /100WBC
PLATELET COUNT [3]: 772 x10E3/uL
ALANINE AMINOTRANSFERASE [3]: 57 u/L
ALBUMIN [3]: 4.1 G/DL
ALKALINE PHOSPHATASE [3]: 212.67 u/L
ASPARTATE AMINOTRANSFERASE [3]: 81 u/L
BLOOD UREA NITROGEN [3]: 11 mg/dL
CARBON DIOXIDE [3]: 37.33 mmol/L
CHLORIDE [3]: 98.33 MEQ/L
CHOLESTEROL [3]: 62 mg/dL
CREATINE PHOSPHOKINASE [3]: 233 u/L
CREATININE [3]: 0.3 mg/dL
GLUCOSE [3]: 154 mg/dL
LACTATE DEHYDROGENASE [3]: 73 u/L
LIPASE [3]: 10 u/L
PHOSPHORUS [3]: 9.7 mg/dL
POTASSIUM [3]: 5.09 MEQ/L
SODIUM [3]: 143.63 MEQ/L
TOTAL BILIRUBIN [3]: 0.13 mg/dL
TOTAL PROTEIN [3]: 5.57 G/DL
URIC ACID [3]: 0.47 mg/dL
ABSOLUTE BASOPHIL [4]: 0 CELLS/uL
ABSOLUTE EOSINOPHIL [4]: 0 CELLS/uL
ABSOLUTE LYMPHOCYTE [4]: 6770.33 CELLS/uL
ABSOLUTE MONOCYTE [4]: 195 CELLS/uL
ABSOLUTE SEGMENTED NEUTROPHIL [4]: 868 CELLS/uL
BASOPHIL [4]: 0%
EOSINOPHIL [4]: 0%
ERYTHROCYTE COUNT [4]: 5.27 x10E6/uL
HEMATOCRIT [4]: 33.47%
LEUKOCYTE COUNT [4]: 7.83 x10E3/uL
LYMPHOCYTE [4]: 89%
MEAN CORPUSCULAR HEMOGLOBIN [4]: 24.47 pg
MEAN CORPUSCULAR HEMOGLOBIN CONCENTRATION [4]: 38.57 G/DL
MEAN CORPUSCULAR VOLUME [4]: 63.43 fL
MONOCYTE [4]: 2.33%
NEUTROPHIL [4]: 8.67%
NUCLEATED RED BLOOD CELLS [4]: 0 /100WBC
PLATELET COUNT [4]: 955 x10E3/uL
ALANINE AMINOTRANSFERASE [4]: 52.33 u/L
ALBUMIN [4]: 4.03 G/DL
ALKALINE PHOSPHATASE [4]: 290.67 u/L
ASPARTATE AMINOTRANSFERASE [4]: 77.33 u/L
BLOOD UREA NITROGEN [4]: 12 mg/dL
CARBON DIOXIDE [4]: 28.67 mmol/L
CHLORIDE [4]: 103.67 MEQ/L
CHOLESTEROL [4]: 71.67 mg/dL
CREATINE PHOSPHOKINASE [4]: 272 u/L
CREATININE [4]: 0.22 mg/dL
GLUCOSE [4]: 144.33 mg/dL
LACTATE DEHYDROGENASE [4]: 50.67 u/L
LIPASE [4]: 9.33 u/L
PHOSPHORUS [4]: 10.47 mg/dL
POTASSIUM [4]: 5.47 MEQ/L
SODIUM [4]: 144.07 MEQ/L
TOTAL BILIRUBIN [4]: 0.13 mg/dL
TOTAL PROTEIN [4]: 5.93 G/DL
URIC ACID [4]: 0.43 mg/dL
ABSOLUTE BASOPHIL [5]: 0 CELLS/uL
ABSOLUTE EOSINOPHIL [5]: 40.67 CELLS/uL
